In this assay the target is T1, recombinant human pancreatic GLK (Homo sapiens, UniProt P35557).
T1 sequence (P35557 1-465): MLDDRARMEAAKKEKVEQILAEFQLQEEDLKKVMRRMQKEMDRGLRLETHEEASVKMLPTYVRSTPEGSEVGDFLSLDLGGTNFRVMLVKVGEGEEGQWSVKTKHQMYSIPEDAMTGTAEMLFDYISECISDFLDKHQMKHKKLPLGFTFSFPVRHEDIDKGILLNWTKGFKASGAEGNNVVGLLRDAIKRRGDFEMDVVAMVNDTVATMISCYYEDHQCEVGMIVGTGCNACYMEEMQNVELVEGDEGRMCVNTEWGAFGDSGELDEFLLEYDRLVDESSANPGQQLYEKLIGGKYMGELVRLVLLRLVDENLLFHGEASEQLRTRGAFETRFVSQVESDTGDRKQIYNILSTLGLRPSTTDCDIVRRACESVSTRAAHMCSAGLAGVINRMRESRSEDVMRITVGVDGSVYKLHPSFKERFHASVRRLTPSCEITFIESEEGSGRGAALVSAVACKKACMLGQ
Briefly: biochemical.

Structures are written as SMILES. pEC50: −log10 of the molar value.

Broadly, the pEC50 is −log10 of the EC50, conventionally taken in molar units.

Take `COC[C@H](C)Oc1cc(OCc2ccccc2)cc(-c2cc3cccnc3[nH]2)c1` [Example 1, 2-[3-(Benzyloxy)-5-[(1S)-2-methoxy-1-methylethoxy]phenyl]-1H-pyrrolo[2,3-b]pyridine]: the pEC50 is 6.92.

The values are drawn from patent publication US20090105263A1, “HETEROBICYCLIC COMPOUNDS AS GLUCOKINASE ACTIVATORS” (priority 2005, published 2009).
